Reference: US9078805B2, “Method for producing a drug delivery system on the basis of polyelectrolyte complexes” (LEIBNIZ-INSTITUT FUER POLYMER-FORSCHUNG DRESDEN E.V., priority 2010, dated 2015)

Experiment: Release of the bisphosphonate and stability of the PEC carrier layer on a germanium model substrate, measured via spectroscopic methods
Type: physicochemical
Settings: after 1 minute; layer applied and dried on the same germanium model substrate
Experimental: 50 microliter of this drug-loaded PEC dispersion was brushed onto an inorganic planar model substrate of germanium and dried in the drying oven at 50° C. The measurement of the release of the bisphosphonate and the stability of the PEC carrier layer was carried out via spectroscopic methods. After 24 hours a relative reduction of the bisphosphonate content of the PEC/drug layer of approximately 50% resulted. […] For a layer of the pure bisphosphonate applied and dried on the same model substrate as in the case of PEC/drug, after 1 minute an immediate detachment and thus a relative reduction of the bisphosphonate content of approximately 100% resulted.

NCCC(O)(P(=O)(O)O)P(=O)(O)O [pure bisphosphonate, pamidronate]
relative reduction of the bisphosphonate content (immediate detachment): approximately 100%
